Our source for the IC50 values is BindingDB's records for patent US9834551 (Arrien Pharmaceuticals, 2017).

The structures appear in SMILES notation. Some results are limits rather than exact numbers.

For this assay, the target named is T1, Tyrosine-protein kinase JAK3 (Homo sapiens, UniProt P52333).
T1 sequence (P52333 whole entry): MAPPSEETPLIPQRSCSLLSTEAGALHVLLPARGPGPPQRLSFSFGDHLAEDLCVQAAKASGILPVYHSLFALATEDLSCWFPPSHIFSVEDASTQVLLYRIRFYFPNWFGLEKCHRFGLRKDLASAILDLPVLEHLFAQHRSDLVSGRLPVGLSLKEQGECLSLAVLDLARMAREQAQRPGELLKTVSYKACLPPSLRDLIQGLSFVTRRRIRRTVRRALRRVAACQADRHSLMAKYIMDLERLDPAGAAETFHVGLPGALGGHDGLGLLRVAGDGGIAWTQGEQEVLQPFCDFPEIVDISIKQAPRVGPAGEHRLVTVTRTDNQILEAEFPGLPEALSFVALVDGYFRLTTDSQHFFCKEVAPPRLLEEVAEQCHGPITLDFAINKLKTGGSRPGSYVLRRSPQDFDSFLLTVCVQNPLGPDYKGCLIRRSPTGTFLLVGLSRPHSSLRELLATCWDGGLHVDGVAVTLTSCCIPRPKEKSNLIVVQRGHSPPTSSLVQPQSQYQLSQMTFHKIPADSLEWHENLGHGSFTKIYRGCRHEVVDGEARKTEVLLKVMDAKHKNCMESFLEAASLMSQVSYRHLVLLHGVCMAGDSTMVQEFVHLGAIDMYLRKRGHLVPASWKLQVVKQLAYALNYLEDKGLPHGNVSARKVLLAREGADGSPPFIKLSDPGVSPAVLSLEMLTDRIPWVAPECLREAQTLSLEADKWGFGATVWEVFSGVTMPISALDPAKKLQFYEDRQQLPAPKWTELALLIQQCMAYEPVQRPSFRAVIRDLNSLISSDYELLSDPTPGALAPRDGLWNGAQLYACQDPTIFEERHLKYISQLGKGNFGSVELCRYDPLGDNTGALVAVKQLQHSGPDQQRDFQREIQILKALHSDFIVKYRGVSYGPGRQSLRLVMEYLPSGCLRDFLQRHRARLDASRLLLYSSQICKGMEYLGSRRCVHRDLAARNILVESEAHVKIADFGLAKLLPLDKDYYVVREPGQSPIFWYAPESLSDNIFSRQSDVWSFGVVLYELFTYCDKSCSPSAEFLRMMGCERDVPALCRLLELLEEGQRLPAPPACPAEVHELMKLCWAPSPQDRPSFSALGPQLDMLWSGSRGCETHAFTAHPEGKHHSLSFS
Kind of assay: In Vitro Inhibition Assay.

Protocol: All additions were done on ice, followed by the addition of ATP mix. Wells were uniformly mixed using an Eppendorff plate shaker and incubated at 30° C. for 20 min, and stopped by the addition of 5 μL of 3% phosphoric acid. Volume was increased to 100 μL by adding 0.8% phosphoric acid which was then transferred to PC filter mats (Millipore), pre-equilibrated with 70% ethanol and water. Plates were washed thrice with 100 μL 0.8% phosphoric acid and dried for an hour at 60° C. 100 μL scintillation fluid was added into each well and reading taken in Perkin Elmer TOPCOUNT beta counter.

As usually defined, the IC50 is the concentration at which inhibition is half-maximal. A high value points to a need for much substance. In turn, `C=CC(=O)Nc1cccc(-c2cnc3[nH]cc(-c4cccc(S(=O)(=O)N(CC)CC)c4)c3c2)c1` [US9834551, Example 28] yielded an IC50 of less than 100 nM.
As for `C=CC(=O)Nc1cccc(-c2cnc3[nH]cc(-c4cccc(C)c4F)c3c2)c1` [US9834551, Example 148], the figure is less than 100 nM.
